The values that follow come from patent publication US20110237533A1, “NOVEL POLYPHENOL COMPOUND” (priority 2008, published 2011).

Where two headings read alike, the source gives them in different places.

The target of this assay is T1, pancreatic lipase derived from swine (Sus scrofa, UniProt P00591).
T1 construct: purchased Sigma Ltd
T1 sequence (P00591 1-450): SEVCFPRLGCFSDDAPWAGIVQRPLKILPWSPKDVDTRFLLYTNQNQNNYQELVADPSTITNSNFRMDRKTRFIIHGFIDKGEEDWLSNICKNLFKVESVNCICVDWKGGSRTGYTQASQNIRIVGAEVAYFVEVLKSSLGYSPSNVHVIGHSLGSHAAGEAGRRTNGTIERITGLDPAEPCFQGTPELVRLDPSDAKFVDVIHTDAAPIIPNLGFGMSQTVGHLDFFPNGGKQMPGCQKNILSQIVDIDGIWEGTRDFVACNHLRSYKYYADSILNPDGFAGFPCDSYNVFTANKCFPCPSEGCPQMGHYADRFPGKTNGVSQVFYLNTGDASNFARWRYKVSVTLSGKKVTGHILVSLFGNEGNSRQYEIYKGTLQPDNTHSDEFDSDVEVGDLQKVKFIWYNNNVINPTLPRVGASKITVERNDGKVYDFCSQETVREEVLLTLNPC
The assay is described as follows: lipase inhibitory test (4-MUO substrate, fluorescence). Format: biochemical. Conditions: read-out: lipase inhibitory activity (%).

Turning to `O=c1c(O)c(-c2ccc(O)c(O)c2)oc2cc(O)cc(O)c12` [quercetin], the inhibition at 250 µM was found to be 64.3%.

Take `O=C(O)c1cc(O)c(O)c(O)c1` [gallic acid]: the inhibition at 250 µM (sample concentration 250 μM, 4-MUO substrate, 37° C., 30 minutes) was 50%.
